# Measured values reported in patent US20260232661A1, “Compositions and Uses Thereof” (Purposeful IKE, priority 2020, published 2026).
# Assays:
# Type in all cases: in vivo
# Fmr1 KO mice [1] = experiment: Hyponeophagia test (anxiety)
# Method: (§1) Fmr1 KO mice backcrossed to the FVB strain and WT littermates were used during experiments. TransnetXY Automated Genotyping (www.transnetyx.com/). TRANSNETYX, INC., 8110 Cordova Rd. Suite 119, Cordova, TN 38016, USA was used for genotyping. The animals were pretreated for 14 days. The active ingredients of Sumatriptan and Ergoloid were in a water carrier, whereas oxitriptan was in a methanol carrier.
# (§2) The mice were housed in plastic cages (35×30×12 cm), 5 in each. The room temperature (21±2° C.), relative humidity (55±5%), a 12-h light-dark cycle (lights on 7 a.m.-7 p.m.) and air exchange (16 times per h) were automatically controlled. The animals had free access to commercial food pellets and water. Testing was conducted during the light phase. Ten mice per treatment group were used for the AGS experiments. Experiments were conducted in line with the requirements of the UK Animals (Scientific Procedures) Act, 1986.
# (§3) All experiments were conducted with the experimenter blind to genotype and drug treatment. Separate investigators prepared and coded dosing solutions, allocated the mice to the study treatment groups, dosed the animals, and collected the Audiogenic Seizure data.
# (§4) Behavior testing was conducted at 2 weeks. The behavioral tests were as follows: 1. Hyperactivity: Open field; 2. Stereotypy: Self-grooming; 3. Sociability: Three chamber partition test; 4. Memory and Learning: Novel Object Recognition; 5. Anxiety: hyponeophagia; and 6. Test of daily living: marble burying
# For anxiety a hyponeophagia test was conducted. Mice and rats cannot vomit, due to the tightness of the cardiac sphincter of the stomach, so to overcome the problem of potential food toxicity they have evolved a strategy of first ingesting only very small amounts of novel substances. The amounts ingested then gradually increase until the animal has determined whether the substance is safe and nutritious. So the old rat-catchers would first put a palatable substance such as oatmeal, which was to be the vehicle for the toxin, in the infested area (Deacon 2011).
# (§5) The treatment of the mice with OX (Oxitriptan), SU (Sumatriptan), ER (Ergoloid mesylates, also referred to as ergoloid herein) were according to the matrix shown below in Table 1.
# (§6) The experimental procedures described above for Example 1 were used in the following tests, as well as the addition of two further behaviour tests as described below. An SSRI (selective serotonin re-uptake inhibitor) was co-dosed with the ergoloid mesylates and oxitriptan to assess the effect of the ergoloid mesylates and oxitriptan treatment on a subject already receiving SSRI treatment.
# (§7) The treatment of the mice with OX (Oxitriptan), ER (Ergoloid mesylates) and FL (fluvoxamine) were according to the matrix shown below in Table 21. The triple combination involved dosing of 2 mg/kg ergoloid mesylates, 40 mg/kg oxitriptan and 40 mg/kg of fluvoxamine (the SSRI).
# Fmr1 KO mice [2] = experiment: Novel Object Recognition (memory and learning); set-up: Mean Diff., N_WT-V vs. treated KO (NOR) / Mean 2, treated KO group (NOR) / Mean Diff., F_KO-V vs. F_KO treated (NOR) / Mean Diff., F_KO-V vs. N_KO treated (NOR) / Mean 2, F_KO treated group (NOR) / Mean 2, N_KO treated group (NOR): unit not given here
# Method: as §1, §2, §3, §4
# For memory and learning, a novel object recognition (NOR) task was used to evaluate the rodents' ability to recognize a novel object in the environment. […] The task procedure consists of three phases: habituation, familiarization, and test phase (Antunes 2012).
# (§8) The treatment of the mice with OX (Oxitriptan), SU (Sumatriptan), ER (Ergoloid mesylates, also referred to as ergoloid herein) were according to the matrix shown below in Table 1. […]
# Fmr1 KO mice [3] = experiment: Self-grooming (stereotypy); conditions: Dunnett's test, alpha 0.05; doses as E31
# Method: as §1, §2, §3
# Behavior testing was conducted at 2 weeks. The behavioral tests were as follows: 1. Hyperactivity: Open field; 2. Stereotypy: Self-grooming; 3. […]
# For stereotypy, self-grooming was assessed. […]
# Fmr1 KO mice [4] = experiment: Three chamber partition test (sociability); set-up: Mean Diff., N_WT-V vs. treated KO (Sociability) / Mean 2, treated KO group (Sociability) / Mean Diff., F_KO-V vs. F_KO treated (Sociability) / Mean Diff., F_KO-V vs. N_KO treated (Sociability) / Mean 2, F_KO treated group (Sociability) / Mean 2, N KO treated group (Sociability) / Mean 2, N_KO treated group (Sociability) / Data table Sociability, F_KO-Sumatriptan / Data table Sociability, N_KO-Sumatriptan / Data table Sociability, F_KO-Oxitriptan: unit not given here
# Method: as §1, §2, §3, §4
# For sociability a three chamber partition test was utilized. The three-chamber paradigm test known as Crawley's sociability and preference for social novelty protocol has previously been successfully employed to study social affiliation and social memory in several inbred and mutant mouse lines. The main principle of the test was based on the free choice by a subject mouse to spend time in any of three box's compartments during two experimental sessions, including indirect contact with one or two mice with which it was unfamiliar (Kaidanovich-Beilin 2011).
# as §8
# Fmr1 KO mice [5] = experiment: Test of daily living (nesting; marble burying)
# Method: as §1, §2, §3, §4
# For test of daily living, nesting was assessed as nest building is an innate behavior in rodents, even when raised in laboratory settings. Synthetic and/or natural materials (such as twine, tissue, cotton, paper, and hay) are provided as a gauge of their overall well-being and as an ancillary assessment to predict the possible decline in cognition. Typically, changes in nesting behaviors, such as failure to create a nest, indicate a change in health or welfare. In addition, nesting behavior is sensitive to many environmental and physiological challenges, as well as many genetic mutations underlying pathological disease states (Gaskill 2013).
# as §5, §6, §7
# Fmr1 KO mice [6] = experiment: Open field test (hyperactivity)
# Method: as §1, §2, §3, §4
# For hyperactivity, the open field test (OFT) is a common measure of exploratory behavior and general activity in both mice and rats, where both the quality and quantity of the activity can be measured. Principally, the open field (OF) is an enclosure, generally square, rectangular, or circular in shape with surrounding walls that prevent escape. The OFT is also commonly used as a mechanism to assess the sedative, toxic, or stimulant effects of compounds (Gould 2009).
# as §5, §6, §7
# [7] = KO mice, mg/kg: Sumatriptan 20, Oxitriptan 40, Ergoloid 4, Ergoloid 2+Sumatriptan 10, Ergoloid 2+Oxitriptan 40
compound,measurement,setting,value
N[C@@H](Cc1c[nH]c2ccc(O)cc12)C(=O)O [Oxitriptan],Significant? WT-V vs. treated KO (Hyponeophagia),"Fmr1 KO mice [1]; Dunnett's test, alpha 0.05, doses as E6",No
same,Significant? KO-V vs. treated KO (Hyponeophagia),"Fmr1 KO mice [1]; Dunnett's test, alpha 0.05, doses as E36",Yes
same,"Summary, WT-V vs. treated KO (Hyponeophagia)","Fmr1 KO mice [1]; Dunnett's test, doses as E6",ns
same,"Mean Diff., WT-V vs. treated KO (Hyponeophagia)",Fmr1 KO mice [1]; [7],−0.7000
same,Significant? F_KO-V vs. F_KO treated (NOR),"Fmr1 KO mice [2]; Dunnett's test, alpha 0.05, F_ groups, doses as E46",No
same,Significant? F_KO-V vs. N_KO treated (NOR),"Fmr1 KO mice [2]; Dunnett's test, alpha 0.05, N_ groups, doses as E51",Yes
same,Significant? N_WT-V vs. treated KO (NOR),"Fmr1 KO mice [2]; Dunnett's test, alpha 0.05, groups and doses as E16",Yes
same,"Summary, F_KO-V vs. F_KO treated (NOR)","Fmr1 KO mice [2]; Dunnett's test, F_ groups, doses as E46",ns
same,"Mean 2, F_KO treated group (NOR)","Fmr1 KO mice [2]; comparison against F_KO-V, doses as E46",5.636
same,Significant? KO-V vs. treated KO (Stereotypy),Fmr1 KO mice [3],Yes
same,Significant? F_KO-V vs. F_KO treated (Sociability),"Fmr1 KO mice [4]; Dunnett's test, alpha 0.05, F_ groups, doses as E56",Yes
same,Significant? F_KO-V vs. N_KO treated (Sociability),"Fmr1 KO mice [4]; Dunnett's test, alpha 0.05, N_ groups, doses as E61",Yes
same,Significant? N_WT-V vs. treated KO (Sociability),"Fmr1 KO mice [4]; Dunnett's test, alpha 0.05, groups and doses as E21",No
same,"Summary, N_WT-V vs. treated KO (Sociability)","Fmr1 KO mice [4]; Dunnett's test, groups and doses as E21",ns
same,"Data table Sociability, F_KO-Oxitriptan","Fmr1 KO mice [4]; F_, KO mice, Oxitriptan 40 mg/kg, individual animals",51
same,"Mean Diff., F_KO-V vs. N_KO treated (Sociability)","Fmr1 KO mice [4]; N_ groups, mg/kg: Sumatriptan 20, Oxitriptan 40, Ergoloid 4, Ergoloid 2+Oxitriptan 40",−17.20
same,"Mean Diff., N_WT-V vs. treated KO (Sociability)","Fmr1 KO mice [4]; N_ groups, mg/kg: Sumatriptan 20, Oxitriptan 40, Ergoloid 4, F_KO Ergoloid 2+Sumatriptan 10, N_KO Ergoloid 2+Oxitriptan 40",0.3000
same,"Mean 2, N_KO treated group (Sociability)","Fmr1 KO mice [4]; comparison against F_KO-V, doses as E61",95.80
same,"Mean 2, treated KO group (Sociability)","Fmr1 KO mice [4]; comparison against N_WT-V, groups and doses as E21",98.80
same,Significant? WT-V vs. treated KO (Test of daily living),"Fmr1 KO mice [5]; Dunnett's test, alpha 0.05, doses as E11",No
same,Significant? KO-V vs. treated KO (Test of daily living),"Fmr1 KO mice [5]; Dunnett's test, alpha 0.05, doses as E41",Yes
same,"Summary, WT-V vs. treated KO (Test of daily living)","Fmr1 KO mice [5]; Dunnett's test, doses as E11",ns
same,"Mean Diff., KO-V vs. treated KO (Test of daily living)","Fmr1 KO mice [5]; KO mice, mg/kg: Sumatriptan 20, Oxitriptan 40, Ergoloid 4, Ergoloid 2+Oxitriptan 40",−3.700
same,"Mean Diff., WT-V vs. treated KO (Test of daily living)",Fmr1 KO mice [5]; [7],−0.1000
same,"Mean 2, treated KO group (Test of daily living)","Fmr1 KO mice [5]; comparison against KO-V, doses as E41",4.900
same,"Mean 2, treated KO group (Test of daily living)","Fmr1 KO mice [5]; comparison against WT-V, doses as E11",4.900
same,Below threshold? WT-V vs. treated KO (Open Field),"Fmr1 KO mice [6]; Dunnett's test, alpha 0.05, doses as E1",Yes
same,Significant? KO-V vs. treated KO (Open Field),"Fmr1 KO mice [6]; Dunnett's test, alpha 0.05, doses as E26",Yes
same,"Mean Diff., WT-V vs. treated KO (Open Field)","Fmr1 KO mice [6]; KO mice, mg/kg: Sumatriptan 20, 5-HTP 80, EM 4, Ergoloid 2+Sumatriptan 10, Ergoloid 2+Oxitriptan 40",−512.4
